Measurements: patent US8093388B2, “3-aza spiro[5,5]undec-8-ene derivatives and their use as monoamine neurotransmitter re-uptake inhibitors” (Neurosearch A/S, priority 2005, dated 2012)
Like-named read-outs stand apart in the source and are kept apart here.

Key:
[1] = molecular target: T1, reuptake of dopamine (DA) in synaptosomes (Rattus norvegicus, UniProt P23977); assay: Inhibition of dopamine (DA) reuptake in synaptosomes; format: biochemical; conditions: 3H-DA, read-out: DA-uptake IC50
T1 construct: in synaptosomes as described in WO 97/16451; from tissue
T1 sequence (P23977 whole entry): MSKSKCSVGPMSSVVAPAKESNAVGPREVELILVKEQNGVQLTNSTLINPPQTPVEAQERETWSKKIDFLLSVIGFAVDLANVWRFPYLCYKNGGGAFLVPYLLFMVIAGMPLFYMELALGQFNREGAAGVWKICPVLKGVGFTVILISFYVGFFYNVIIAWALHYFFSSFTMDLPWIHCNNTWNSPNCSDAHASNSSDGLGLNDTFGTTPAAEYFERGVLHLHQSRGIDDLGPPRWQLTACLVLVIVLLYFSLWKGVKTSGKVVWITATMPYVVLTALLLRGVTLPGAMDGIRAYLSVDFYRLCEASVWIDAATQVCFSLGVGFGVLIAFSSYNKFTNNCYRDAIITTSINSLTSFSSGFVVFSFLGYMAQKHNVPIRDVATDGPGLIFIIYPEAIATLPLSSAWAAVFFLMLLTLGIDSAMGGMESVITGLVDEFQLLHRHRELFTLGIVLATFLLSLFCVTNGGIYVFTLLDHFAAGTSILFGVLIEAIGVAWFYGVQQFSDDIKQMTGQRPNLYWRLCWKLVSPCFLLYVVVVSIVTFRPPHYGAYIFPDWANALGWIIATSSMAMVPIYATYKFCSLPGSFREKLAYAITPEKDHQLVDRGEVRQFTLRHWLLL
From the text: (§1) Compounds of the invention may be tested for their ability to inhibit reuptake of the monoamines dopamine, noradrenaline and serotonin in synaptosomes e.g. such as described in WO 97/30997. Based on the balanced activity observed in these tests the compound of the invention is considered useful for the treatment, prevention or alleviation of a disease or a disorder or a condition of a mammal, including a human, which disease, disorder or condition is responsive to inhibition of monoamine neurotransmitter re-uptake in the central nervous system.
(§2) A number of compounds were tested for their ability to inhibit the reuptake of the monoamine neurotransmitters dopamine (DA) noradrenaline (NA) and serotonine (5-HT) in synaptosomes as described in WO 97/16451.
(§3) The test values are given as IC50 (the concentration (μM) of the test substance which inhibits the specific binding of ^3H-DA, ^3H-NA, or ^3H-5-HT by 50%).

[2] = molecular target: T2, reuptake of serotonine (5-HT) in synaptosomes (Rattus norvegicus, UniProt P31652); assay: Inhibition of serotonine (5-HT) reuptake in synaptosomes; format: biochemical
T2 construct: in synaptosomes as described in WO 97/16451; from tissue
T2 sequence (P31652 whole entry): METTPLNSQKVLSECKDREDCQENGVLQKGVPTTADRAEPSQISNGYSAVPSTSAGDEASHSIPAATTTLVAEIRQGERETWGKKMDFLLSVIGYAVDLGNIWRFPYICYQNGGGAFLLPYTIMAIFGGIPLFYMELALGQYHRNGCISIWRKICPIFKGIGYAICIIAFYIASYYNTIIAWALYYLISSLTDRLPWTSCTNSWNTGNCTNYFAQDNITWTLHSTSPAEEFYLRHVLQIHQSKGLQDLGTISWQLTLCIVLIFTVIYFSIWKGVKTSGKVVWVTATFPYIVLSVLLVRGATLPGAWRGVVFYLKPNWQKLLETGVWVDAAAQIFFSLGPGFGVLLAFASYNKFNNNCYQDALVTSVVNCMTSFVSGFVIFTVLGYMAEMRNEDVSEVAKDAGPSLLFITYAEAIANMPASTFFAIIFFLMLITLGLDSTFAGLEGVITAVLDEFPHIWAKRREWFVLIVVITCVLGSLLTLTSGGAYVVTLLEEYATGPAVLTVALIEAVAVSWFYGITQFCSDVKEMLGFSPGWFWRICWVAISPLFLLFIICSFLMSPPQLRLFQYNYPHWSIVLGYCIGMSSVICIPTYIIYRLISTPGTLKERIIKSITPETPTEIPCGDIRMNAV
From the text: as §1, §2, §3

[3] = molecular target: T3, reuptake of noradrenaline (NA) in synaptosomes (Rattus norvegicus, UniProt Q9WTR4); assay: Inhibition of noradrenaline (NA) reuptake in synaptosomes; format: biochemical; conditions: 3H-NA, read-out: NA-uptake IC50
T3 construct: in synaptosomes as described in WO 97/16451; from tissue
T3 sequence (Q9WTR4 1-597): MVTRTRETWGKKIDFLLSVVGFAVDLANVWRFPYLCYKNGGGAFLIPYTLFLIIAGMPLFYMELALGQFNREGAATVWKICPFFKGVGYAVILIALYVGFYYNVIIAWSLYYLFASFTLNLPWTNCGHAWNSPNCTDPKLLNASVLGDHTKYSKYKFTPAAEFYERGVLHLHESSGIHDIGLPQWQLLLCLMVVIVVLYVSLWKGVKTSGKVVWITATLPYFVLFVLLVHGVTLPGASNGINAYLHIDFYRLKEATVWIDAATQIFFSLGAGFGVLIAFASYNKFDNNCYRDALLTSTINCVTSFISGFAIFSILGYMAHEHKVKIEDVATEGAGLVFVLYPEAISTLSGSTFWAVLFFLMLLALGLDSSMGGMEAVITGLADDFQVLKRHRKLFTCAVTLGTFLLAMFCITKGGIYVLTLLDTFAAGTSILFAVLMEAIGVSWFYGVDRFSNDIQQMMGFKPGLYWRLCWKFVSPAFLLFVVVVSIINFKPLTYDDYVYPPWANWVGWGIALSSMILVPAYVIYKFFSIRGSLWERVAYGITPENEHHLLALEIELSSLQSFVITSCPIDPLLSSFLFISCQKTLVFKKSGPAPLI
From the text: as §1, §2, §3

[4] = synaptosomes, 3H-5-HT, read-out: 5-HT-uptake IC50

For `C1=C(c2cc3ccccc3o2)CCC2(C1)CCNCC2.O=C(O)C(F)(F)F`, the melting point was 215.7 to 217.3 °C.

Compound `CN1CCC2(CC=C(c3cc4ccccc4o3)CC2)CC1.O=C(O)/C=C/C(=O)O` has a melting point of 224.2 to 226.1 °C.

With `Clc1ccc(C2=CCC3(CCNCC3)CC2)cc1` the melting point was 104.2 to 107.1 °C.

With `C1=C(c2cc3ccccc3s2)CCC2(C1)CCNCC2` [2nd compound of method A, 9-Benzo[b]thiophen-2-yl-3-aza-spiro[5.5]undec-8-ene] the IC50 [1] was 1200 nM, the IC50 [2, 4] was 20 nM and the IC50 [3] was 580 nM. For the same compound, the melting point was 107.3 to 110.2 °C.

Compound `Brc1cccc(C2=CCC3(CCNCC3)CC2)n1` [2nd last compound of method A, 9-(6-Bromo-pyridin-2-yl)-3-aza-spiro[5.5]undec-8-ene] has an IC50 [1] of 2000 nM, an IC50 [2] of 18 nM and an IC50 [3] of 1000 nM. It also gave a melting point of 161.3 to 162.8 °C.

`COc1ccc2cc(C3=CCC4(CCNCC4)CC3)ccc2c1` [4th compound of method A, 9-(6-Methoxy-naphthalen-2-yl)-3-aza-spiro[5.5]undec-8-ene] gave an IC50 [1] of 38 nM, an IC50 [2, 4] of 16 nM and an IC50 [3] of 120 nM. It also gave a melting point of 146.9 to 149.5 °C.

For `COc1cc(C2=CCC3(CCNCC3)CC2)ccc1Cl` [9-(4-Chloro-3-methoxy-phenyl)-3-aza-spiro[5.5]undec-8-ene], the melting point was 182 to 185 °C.

With `COc1ccc2cc(C3=CCC4(CC3)CCN(C)CC4)ccc2c1` [9-(6-Methoxy-naphthalen-2-yl)-3-methyl-3-aza-spiro[5.5]undec-8-ene] the melting point was 146.9 to 149.5 °C.

`CN1CCC2(CC=C(c3cc4ccccc4s3)CC2)CC1` [9-Benzo[b]thiophen-2-yl-3-methyl-3-aza-spiro[5.5]undec-8-ene] showed a melting point of 89.7 to 91.2 °C.

Compound `C1=C(c2ccc3ccccc3c2)CCC2(C1)CCNCC2` [9-Naphthalen-2-yl-3-aza-spiro[5.5]undec-8-ene] has a melting point of 137.1 to 141.3 °C.
